Source: article PMC5218480 (PLoS ONE, 2017)

Test system: MV-4-11 cells
Assay: Gene expression microarray analysis (Affymetrix PrimeView) and GSEA
Format: cell-based, human
Set-up: RFU PODN (11730768_x_at) / Fold change /veh PODN (11730768_x_at) / RFU LINC00158 (11744669_a_at) / Fold change /veh LINC00158 (11744669_a_at) / RFU DUSP10 (11751237_a_at) / Fold change /veh DUSP10 (11751237_a_at) / RFU ID3 (11757404_x_at) / Fold change /veh ID3 (11757404_x_at) / RFU PLEKHG5 (11737974_s_at) / Fold change /veh PLEKHG5 (11737974_s_at) / RFU LRRC4B (11730491_at) / Fold change /veh LRRC4B (11730491_at) / RFU GIMAP4 (11747438_a_at) / Fold change /veh GIMAP4 (11747438_a_at) / RFU KRT8 (11758183_x_at) / Fold change /veh KRT8 (11758183_x_at) / RFU CNN1 (11734310_a_at) / Fold change /veh CNN1 (11734310_a_at) / RFU VPS37D (11726825_at) / Fold change /veh VPS37D (11726825_at) / RFU C10orf10 (11716522_x_at) / Fold change /veh C10orf10 (11716522_x_at) / RFU KIR2DL2 /// KIR2DL4 /// KIR2DL5A /// KIR2DL5B /// KIR2DS1 /// KIR2DS2 /// KIR2DS3 /// KIR2DS4 /// KIR3DL3 /// KIR3DL3 /// KIR3DS1 (11738374_at) / Fold change /veh KIR2DL2 /// KIR2DL4 /// KIR2DL5A /// KIR2DL5B /// KIR2DS1 /// KIR2DS2 /// KIR2DS3 /// KIR2DS4 /// KIR3DL3 /// KIR3DL3 /// KIR3DS1 (11738374_at) / RFU C1QL1 (11718748_at) / Fold change /veh C1QL1 (11718748_at) / RFU TMPRSS4 (11747572_a_at) / Fold change /veh TMPRSS4 (11747572_a_at) / RFU HAMP (11756126_x_at) / Fold change /veh HAMP (11756126_x_at) / RFU RNFT2 (11725882_a_at) / Fold change /veh RNFT2 (11725882_a_at) / RFU NR4A2 (11747474_a_at) / Fold change /veh NR4A2 (11747474_a_at) / RFU ABCC12 (11746883_a_at) / Fold change /veh ABCC12 (11746883_a_at) / RFU TMEM136 (11760407_x_at) / Fold change /veh TMEM136 (11760407_x_at) / RFU CLDN22 /// WWC2 (11732394_at) / Fold change /veh CLDN22 /// WWC2 (11732394_at) / RFU HLA-DPB1 (11760878_x_at) / Fold change /veh HLA-DPB1 (11760878_x_at) / RFU SPINT1 (11716480_a_at) / Fold change /veh SPINT1 (11716480_a_at) / RFU GAP43 (11754022_s_at) / Fold change /veh GAP43 (11754022_s_at) / RFU A4GNT (11735810_at) / Fold change /veh A4GNT (11735810_at) / RFU PRB3 (11715151_x_at) / Fold change /veh PRB3 (11715151_x_at) / RFU TUBB4B (11761932_at) / Fold change /veh TUBB4B (11761932_at) / RFU CAPN14 (11732068_a_at) / Fold change /veh CAPN14 (11732068_a_at) / RFU TMCC2 (11721928_a_at) / Fold change /veh TMCC2 (11721928_a_at) / RFU IRGQ (11745062_a_at) / Fold change /veh IRGQ (11745062_a_at) / RFU FAM174B (11720279_a_at) / Fold change /veh FAM174B (11720279_a_at) / RFU TMPRSS4 (11748680_a_at) / Fold change /veh TMPRSS4 (11748680_a_at) / RFU FAM212B (11763350_a_at) / Fold change /veh FAM212B (11763350_a_at) / RFU PLEKHG5 (11743358_a_at) / Fold change /veh PLEKHG5 (11743358_a_at) / RFU ZSCAN30 (11745921_a_at) / Fold change /veh ZSCAN30 (11745921_a_at) / RFU CMKLR1 (11741424_a_at) / Fold change /veh CMKLR1 (11741424_a_at) / RFU LOC101060620 /// MAPK8IP1 (11723275_at) / Fold change /veh LOC101060620 /// MAPK8IP1 (11723275_at) / RFU SPTSSB (11747773_x_at) / Fold change /veh SPTSSB (11747773_x_at) / RFU PRSS12 (11739890_at) / Fold change /veh PRSS12 (11739890_at) / RFU BIN1 (11741810_x_at) / Fold change /veh BIN1 (11741810_x_at) / RFU WNT11 (11732464_a_at) / Fold change /veh WNT11 (11732464_a_at) / RFU C10orf10 (11716521_a_at) / Fold change /veh C10orf10 (11716521_a_at) / RFU C5orf56 (11738089_at) / Fold change /veh C5orf56 (11738089_at) / RFU CYB561 (11721691_x_at) / Fold change /veh CYB561 (11721691_x_at) / RFU ANKRD19P (11752326_a_at) / Fold change /veh ANKRD19P (11752326_a_at) / RFU OR2T12 /// OR2T33 /// OR2T8 (11738714_s_at) / Fold change /veh OR2T12 /// OR2T33 /// OR2T8 (11738714_s_at) / RFU VCAN (11748164_a_at) / Fold change /veh VCAN (11748164_a_at) / RFU JSRP1 (11732532_at) / Fold change /veh JSRP1 (11732532_at) / RFU KRTAP10-11 (11738290_x_at) / Fold change /veh KRTAP10-11 (11738290_x_at) / RFU MYO3A (11730013_a_at) / Fold change /veh MYO3A (11730013_a_at) / RFU EBF3 (11725865_a_at) / Fold change /veh EBF3 (11725865_a_at) / RFU CAMK2N1 (11719241_x_at) / Fold change /veh CAMK2N1 (11719241_x_at) / RFU C5orf56 (11738088_a_at) / Fold change /veh C5orf56 (11738088_a_at) / RFU OLFML3 (11715873_a_at) / Fold change /veh OLFML3 (11715873_a_at) / RFU LOC100653217 /// NTM (11731650_a_at) / Fold change /veh LOC100653217 /// NTM (11731650_a_at) / RFU MAPK11 (11762145_a_at) / Fold change /veh MAPK11 (11762145_a_at) / RFU FIZ1 (11724087_x_at) / Fold change /veh FIZ1 (11724087_x_at) / RFU OASL (11726364_x_at) / Fold change /veh OASL (11726364_x_at) / RFU SOX15 (11748057_x_at) / Fold change /veh SOX15 (11748057_x_at) / RFU CD79A (11719716_a_at) / Fold change /veh CD79A (11719716_a_at) / RFU HIST1H1D (11736915_at) / Fold change /veh HIST1H1D (11736915_at) / RFU CASKIN2 (11723855_a_at) / Fold change /veh CASKIN2 (11723855_a_at) / RFU LOC730098 (11760151_x_at) / Fold change /veh LOC730098 (11760151_x_at) / RFU OR4N2 (11742367_at) / Fold change /veh OR4N2 (11742367_at) / RFU PRRT2 (11749266_a_at) / Fold change /veh PRRT2 (11749266_a_at) / RFU SNX32 (11753110_a_at) / Fold change /veh SNX32 (11753110_a_at) / RFU CDHR5 (11726645_a_at) / Fold change /veh CDHR5 (11726645_a_at) / RFU RCAN1 (11760418_a_at) / Fold change /veh RCAN1 (11760418_a_at) / RFU FAM167A (11723789_a_at) / Fold change /veh FAM167A (11723789_a_at) / RFU FAM26E (11764081_at) / Fold change /veh FAM26E (11764081_at) / RFU ISYNA1 (11749810_s_at) / Fold change /veh ISYNA1 (11749810_s_at) / RFU ACY1 (11761880_at) / Fold change /veh ACY1 (11761880_at) / RFU 11764098_at / Fold change /veh 11764098_at / RFU SAMD14 (11745864_x_at) / Fold change /veh SAMD14 (11745864_x_at) / RFU NPB (11741838_a_at) / Fold change /veh NPB (11741838_a_at) / RFU TMPRSS6 (11731388_a_at) / Fold change /veh TMPRSS6 (11731388_a_at) / RFU KRTAP10-2 (11738614_at) / Fold change /veh KRTAP10-2 (11738614_at) / RFU ARHGAP8 /// PRR5-ARHGAP8 (11727945_x_at) / Fold change /veh ARHGAP8 /// PRR5-ARHGAP8 (11727945_x_at) / RFU KRTAP5-7 /// NADSYN1 (11734609_at) / Fold change /veh KRTAP5-7 /// NADSYN1 (11734609_at) / RFU RASL12 (11751679_a_at) / Fold change /veh RASL12 (11751679_a_at) / RFU CDKN2B (11736163_a_at) / Fold change /veh CDKN2B (11736163_a_at) / RFU PRF1 (11729649_at) / Fold change /veh PRF1 (11729649_at) / RFU, ZNF638 /// ZNF638-IT1 / Fold change vs veh, ZNF638 /// ZNF638-IT1 / RFU, PANK3 / Fold change vs veh, PANK3 / RFU, SH3YL1 / Fold change vs veh, SH3YL1 / RFU, ZEB2 / Fold change vs veh, ZEB2 / RFU, NRIP1 / Fold change vs veh, NRIP1 / RFU, PTTG1IP / Fold change vs veh, PTTG1IP / RFU, CAPN2 / Fold change vs veh, CAPN2 / RFU, MED14 / Fold change vs veh, MED14 / RFU, SNORA58 / Fold change vs veh, SNORA58 / RFU, C1orf63 / Fold change vs veh, C1orf63 / RFU, LRRFIP1 / Fold change vs veh, LRRFIP1 / RFU, NDUFAF7 / Fold change vs veh, NDUFAF7 / RFU, SLC12A2 / Fold change vs veh, SLC12A2 / RFU, IBTK / Fold change vs veh, IBTK / RFU, ESF1 / Fold change vs veh, ESF1 / Fold change vs veh, TMEM50B / RFU, TAOK1 / Fold change vs veh, TAOK1 / RFU, ACBD3 / Fold change vs veh, ACBD3 / RFU, TMA16 / Fold change vs veh, TMA16 / RFU, RWDD3 / Fold change vs veh, RWDD3 / RFU, BCAT1 / Fold change vs veh, BCAT1 / RFU, EDEM3 / Fold change vs veh, EDEM3 / RFU, TMEM33 / Fold change vs veh, TMEM33 / RFU, WDR75 / Fold change vs veh, WDR75 / RFU, AHCTF1 / Fold change vs veh, AHCTF1 / RFU, TFRC / Fold change vs veh, TFRC / RFU, ZDHHC17 / Fold change vs veh, ZDHHC17 / RFU, NOM1 / Fold change vs veh, NOM1 / RFU, ARL8B / Fold change vs veh, ARL8B / RFU, ZBTB11 / Fold change vs veh, ZBTB11 / RFU, TAMM41 / Fold change vs veh, TAMM41 / RFU, KIAA1704 /// LOC100996395 / Fold change vs veh, KIAA1704 /// LOC100996395 / RFU, ING1 / Fold change vs veh, ING1 / RFU, TRMT61B / Fold change vs veh, TRMT61B / RFU, FUBP3 / Fold change vs veh, FUBP3 / RFU, TP53 / Fold change vs veh, TP53 / RFU, TNKS2 / Fold change vs veh, TNKS2 / RFU, ZFP14 / Fold change vs veh, ZFP14 / RFU, ACTR2 / Fold change vs veh, ACTR2 / RFU, PPP3R1 / Fold change vs veh, PPP3R1 / RFU, PIK3R1 / Fold change vs veh, PIK3R1 / RFU, HNRNPA1 / Fold change vs veh, HNRNPA1 / RFU, RNF170 / Fold change vs veh, RNF170 / RFU, ZNF28 / Fold change vs veh, ZNF28 / RFU, RNGTT / Fold change vs veh, RNGTT / RFU, OGT / Fold change vs veh, OGT / RFU, BRD1 / Fold change vs veh, BRD1 / RFU, MARS / Fold change vs veh, MARS / RFU, ZNF655 / Fold change vs veh, ZNF655 / RFU, FAHD1 / Fold change vs veh, FAHD1 / RFU, BDP1 / Fold change vs veh, BDP1 / RFU, LRRCC1 / Fold change vs veh, LRRCC1 / RFU, ARID1A / Fold change vs veh, ARID1A / RFU, ZNF146 / Fold change vs veh, ZNF146 / RFU, ZNF330 / Fold change vs veh, ZNF330 / RFU, GPN3 / Fold change vs veh, GPN3 / RFU, C9orf123 / Fold change vs veh, C9orf123 / RFU, N4BP2L2 / Fold change vs veh, N4BP2L2 / RFU, ARFIP1 / Fold change vs veh, ARFIP1 / RFU, FAM179B / Fold change vs veh, FAM179B / RFU, BCL10 / Fold change vs veh, BCL10 / RFU, UHRF1BP1L / Fold change vs veh, UHRF1BP1L / RFU, BET1 / Fold change vs veh, BET1 / RFU, CNOT2 / Fold change vs veh, CNOT2 / RFU, ZNF268 / Fold change vs veh, ZNF268 / Fold change vs veh, ZNF507 / RFU, DGCR2 / Fold change vs veh, DGCR2 / RFU, WDSUB1 / Fold change vs veh, WDSUB1 / Fold change vs veh, HSP90B1 /// MIR3652 / RFU, ADSS / Fold change vs veh, ADSS / RFU, GK / Fold change vs veh, GK / RFU, ZNF148 / Fold change vs veh, ZNF148 / RFU, TAF9 / Fold change vs veh, TAF9 / RFU, SLC1A5 / Fold change vs veh, SLC1A5 / RFU, SLMO2 / Fold change vs veh, SLMO2 / RFU, ABCC4 / Fold change vs veh, ABCC4 / RFU, LOC101060439 /// RAP1B / Fold change vs veh, LOC101060439 /// RAP1B / RFU, RFX7 / Fold change vs veh, RFX7 / RFU, GTPBP10 / Fold change vs veh, GTPBP10 / RFU, CNEP1R1 / Fold change vs veh, CNEP1R1 / RFU, BIVM-ERCC5 /// ERCC5 / Fold change vs veh, BIVM-ERCC5 /// ERCC5 / RFU, ILF3 / Fold change vs veh, ILF3 / RFU 11762660_at / Fold change /veh 11762660_at / RFU VCAN (11757783_s_at) / Fold change /veh VCAN (11757783_s_at) / RFU DDX43 (11728927_at) / Fold change /veh DDX43 (11728927_at) / RFU KRT8 (11758188_x_at) / Fold change /veh KRT8 (11758188_x_at) / RFU NKD1 (11759106_at) / Fold change /veh NKD1 (11759106_at) / RFU SRD5A1 (11742802_a_at) / Fold change /veh SRD5A1 (11742802_a_at) / RFU TPSAB1 /// TPSB2 (11721975_s_at) / Fold change /veh TPSAB1 /// TPSB2 (11721975_s_at) / RFU GSTM3 (11746129_a_at) / Fold change /veh GSTM3 (11746129_a_at) / RFU IL23R (11737362_x_at) / Fold change /veh IL23R (11737362_x_at) / RFU TMEM51 (11727254_a_at) / Fold change /veh TMEM51 (11727254_a_at) / RFU PIWIL2 (11732686_x_at) / Fold change /veh PIWIL2 (11732686_x_at) / RFU ORM1 (11744905_x_at) / Fold change /veh ORM1 (11744905_x_at) / RFU CCDC152 (11743942_at) / Fold change /veh CCDC152 (11743942_at) / RFU ECM1 (11717891_a_at) / Fold change /veh ECM1 (11717891_a_at) / RFU IL23R (11748794_a_at) / Fold change /veh IL23R (11748794_a_at) / RFU TNFAIP8L3 (11732012_x_at) / Fold change /veh TNFAIP8L3 (11732012_x_at) / RFU MBOAT4 (11741988_at) / Fold change /veh MBOAT4 (11741988_at) / RFU 11764193_at / Fold change /veh 11764193_at / RFU TMEM53 (11763286_at) / Fold change /veh TMEM53 (11763286_at) / RFU MAGEB2 (11727129_at) / Fold change /veh MAGEB2 (11727129_at) / RFU TMEM200A (11744735_a_at) / Fold change /veh TMEM200A (11744735_a_at) / RFU CCDC152 (11751479_a_at) / Fold change /veh CCDC152 (11751479_a_at) / RFU FAM211A (11726209_a_at) / Fold change /veh FAM211A (11726209_a_at) / RFU RGS16 (11746705_a_at) / Fold change /veh RGS16 (11746705_a_at) / RFU VCAN (11755009_s_at) / Fold change /veh VCAN (11755009_s_at) / RFU RHOB (11743442_s_at) / Fold change /veh RHOB (11743442_s_at) / RFU RGS16 (11720943_a_at) / Fold change /veh RGS16 (11720943_a_at) / RFU RGS16 (11720944_at) / Fold change /veh RGS16 (11720944_at) / RFU, VPS4B / Fold change vs veh, VPS4B / RFU, CREB1 / Fold change vs veh, CREB1 / RFU, DNAJC13 / Fold change vs veh, DNAJC13 / RFU, GNAQ / Fold change vs veh, GNAQ / RFU, CDK5R1 / Fold change vs veh, CDK5R1 / RFU, ZRANB3 / Fold change vs veh, ZRANB3 / RFU, CUL4A / Fold change vs veh, CUL4A / RFU, CCNY / Fold change vs veh, CCNY / RFU, UFL1 / Fold change vs veh, UFL1 / RFU, COG3 / Fold change vs veh, COG3 / RFU, DIAPH2 / Fold change vs veh, DIAPH2 / RFU, SKA2 / Fold change vs veh, SKA2 / RFU, AFF3 / Fold change vs veh, AFF3 / RFU, LMF1 / Fold change vs veh, LMF1 / RFU, IPO11 / Fold change vs veh, IPO11 / RFU, DFFB / Fold change vs veh, DFFB / RFU, FOXP1 / Fold change vs veh, FOXP1 / RFU, CARD8 / Fold change vs veh, CARD8 / RFU, STRN3 / Fold change vs veh, STRN3 / RFU, ADK / Fold change vs veh, ADK / RFU, RASSF2 / Fold change vs veh, RASSF2 / RFU, WIPF1 / Fold change vs veh, WIPF1 / RFU, LARP1B / Fold change vs veh, LARP1B / RFU, RASA1 / Fold change vs veh, RASA1 / RFU, RB1 / Fold change vs veh, RB1 / RFU, PPFIA1 / Fold change vs veh, PPFIA1 / RFU, MAT2A / Fold change vs veh, MAT2A / RFU, CCT5 / Fold change vs veh, CCT5 / RFU, WDR92 / Fold change vs veh, WDR92 / RFU, CUX1 / Fold change vs veh, CUX1 / RFU, TTC7A / Fold change vs veh, TTC7A / RFU, TMEM135 / Fold change vs veh, TMEM135 / RFU, DEPTOR / Fold change vs veh, DEPTOR / RFU, CPM / Fold change vs veh, CPM / RFU, DNAJB6 / Fold change vs veh, DNAJB6 / RFU, CACNA2D3 / Fold change vs veh, CACNA2D3 / RFU, DTX4 / Fold change vs veh, DTX4 / RFU, TFCP2 / Fold change vs veh, TFCP2 / RFU, GMCL1 /// GMCL1P1 / Fold change vs veh, GMCL1 /// GMCL1P1 / RFU, AEBP2 / Fold change vs veh, AEBP2 / RFU, SNHG1 /// SNORD22 /// SNORD25 /// SNORD26 /// SNORD27 /// SNORD28 /// SNORD29 /// SNORD31 / Fold change vs veh, SNHG1 /// SNORD22 /// SNORD25 /// SNORD26 /// SNORD27 /// SNORD28 /// SNORD29 /// SNORD31 / Fold change (Aza/veh), C12orf56 (ProbeSet 11735607_a_at) / Fold change (ACY-1035/veh), C12orf56 (ProbeSet 11735607_a_at) / Fold change (Aza/veh), FGFR1OP (ProbeSet 11751329_s_at) / Fold change (ACY-1035/veh), FGFR1OP (ProbeSet 11751329_s_at) / Fold change (Aza/veh), VPS36 (ProbeSet 11739960_a_at) / Fold change (ACY-1035/veh), VPS36 (ProbeSet 11739960_a_at) / RFU SYPL1 (11715823_x_at) / Fold change /veh SYPL1 (11715823_x_at) / RFU IGFBP7 (11715501_s_at) / Fold change /veh IGFBP7 (11715501_s_at) / RFU REEP3 (11722064_at) / Fold change /veh REEP3 (11722064_at) / RFU IGLL1 (11728026_x_at) / Fold change /veh IGLL1 (11728026_x_at): dose or concentration left out as unconfirmed
Settings: MV-4-11 cells, 48 hours

SMILES: Nc1ncn([C@@H]2O[C@H](CO)[C@@H](O)[C@H]2O)c(=O)n1 [azacitidine]
- Fold change /veh TMEM200A (11744735_a_at): 1.56
